Measurements taken from patent publication US20200377551A1, “PEPTIDE CONSTRUCTS AND METHODS FOR ENHANCEMENT OF INTERFERON PRODUCTION” (Wake Forest University Health Sciences, priority 2019, published 2020).
Where two headings read alike, the source gives them in different places.

What was measured:
HeLa cells = test: Immunofluorescence cellular localization of peptides in HeLa cells; format: cell-based; settings: HeLa cells pretreated with peptides; MAVS or Tat antibody staining; data not shown
HK2 = test: Immunoblot of HK2 level in the mitochondria fraction of THP1 cells; settings: Poly(I:C) or HTDNA transfection or LPS stimulation
HEK293 cells [1] = test: Metabolomics analysis of HEK293 cells after Poly(I:C) transfection; format: cell-based
From the text: To investigate whether energy metabolism participates in regulating type-I IFN production, an unbiased, a systemic metabolomics approach was employed to examine the global metabolic changes during RLR-induced type-I IFN production. Changes of metabolites in glycolysis or oxidative phosphorylation were observed upon transfection of HEK293 cells with Poly(I:C) and harvesting for metabolomics analysis. […] As the direct pyruvate downstream metabolite, Acetyl-CoA production would be expected to decrease due to the reduction in pyruvate level, leading to the slower consumption of OAA for citrate production and thus maintaining the OAA level.

RLR signaling [2] = format: cell-based
VSV-GFP = format: cell-based, Vesicular stomatitis virus
iBMM cells = format: cell-based
MAVS signaling = format: cell-based
RIG-I/MAVS = target: T1, RIG-I/MAVS (Homo sapiens, UniProt Q7Z434); test: Immunoprecipitation of activated RIG-I and MAVS in HEK293 cells; format: cell-based; settings: basal and Sendai virus-infected conditions
T1 construct: host or cells: HEK293 (per the earlier reading)

MAVS [3] = target: T2, MAVS (Homo sapiens, UniProt Q7Z434); test: MAVS mitochondria localization in HEK293 cells (immunoblot of mitochondria fraction, immunofluorescence)
Target sequence in this assay (Q7Z434 whole entry): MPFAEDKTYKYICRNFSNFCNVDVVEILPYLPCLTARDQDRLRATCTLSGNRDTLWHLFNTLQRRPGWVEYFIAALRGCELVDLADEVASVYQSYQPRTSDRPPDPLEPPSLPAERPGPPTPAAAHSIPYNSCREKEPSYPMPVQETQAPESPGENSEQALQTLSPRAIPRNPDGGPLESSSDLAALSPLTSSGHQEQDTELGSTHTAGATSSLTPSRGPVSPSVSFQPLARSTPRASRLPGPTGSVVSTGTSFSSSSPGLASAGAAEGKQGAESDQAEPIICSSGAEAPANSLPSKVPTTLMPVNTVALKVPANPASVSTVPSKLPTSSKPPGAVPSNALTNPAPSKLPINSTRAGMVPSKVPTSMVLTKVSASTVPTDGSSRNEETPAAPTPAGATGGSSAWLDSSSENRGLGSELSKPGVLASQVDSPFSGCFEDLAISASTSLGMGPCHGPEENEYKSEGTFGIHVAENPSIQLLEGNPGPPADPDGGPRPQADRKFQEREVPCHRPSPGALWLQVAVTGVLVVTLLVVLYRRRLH

MAVS [4] = target: T2, MAVS; test: Lactate-MAVS binding (biotin-lactate pulldown, immunoprecipitation, in vitro binding)
Target sequence in this assay (Q7Z434 2-540 limits assumed): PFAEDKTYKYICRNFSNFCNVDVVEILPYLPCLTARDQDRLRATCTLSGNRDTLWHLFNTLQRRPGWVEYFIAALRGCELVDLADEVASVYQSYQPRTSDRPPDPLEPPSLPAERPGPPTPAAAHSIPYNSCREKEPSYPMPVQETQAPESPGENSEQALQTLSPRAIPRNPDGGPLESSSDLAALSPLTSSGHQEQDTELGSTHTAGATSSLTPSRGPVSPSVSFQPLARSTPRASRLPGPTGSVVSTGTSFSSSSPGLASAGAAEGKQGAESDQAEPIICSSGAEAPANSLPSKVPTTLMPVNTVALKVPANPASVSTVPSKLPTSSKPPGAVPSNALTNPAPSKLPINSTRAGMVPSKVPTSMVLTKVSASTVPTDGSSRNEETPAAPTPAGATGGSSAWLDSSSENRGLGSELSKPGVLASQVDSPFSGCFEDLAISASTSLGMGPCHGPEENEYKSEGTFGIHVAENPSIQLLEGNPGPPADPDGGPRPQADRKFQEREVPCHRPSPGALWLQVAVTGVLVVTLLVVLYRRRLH

RLR signaling [5] = format: cell-based, mice
Sendai virus = format: cell-based
RLR signaling [6] = test: Q-PCR analysis of IFN-β expression in Hep3B cells transfected with Poly(I:C); format: cell-based; settings: Hep3B control cells; effect markedly impaired upon MCT1 knockdown
RLR signaling [7] = format: cell-based; remark: listed apart in the source
VSV = format: in vivo; settings: mice; sodium oxamate (750 mg/kg)
MAVS-TBK1-IRF3 = test: IRF3 and TBK1 phosphorylation and MAVS aggregation in cells upon RLR activation; format: cell-based; settings: data not shown
Procedure: In vivo and in vitro MAVS aggregation assays. In vivo MAVS aggregation was performed according to published protocol (Hou et al., 2011). In brief, mitochondria were isolated by using the Mitochondria isolation kit (Thermo 89874), and mitochondria pellet was suspended in 1×sample buffer (0.5×TBE, 10% glycerol, 2% SDS, and 0.0025% bromophenol blue) and subjected to Semi-denaturing detergent agarose gel electrophoresis (SDD-AGE). Samples were loaded onto a vertical 1.5% agarose gel (Bio-Rad). After electrophoresis in the running buffer (1×TBE and 0.1% SDS) for 40 min with a constant voltage of 80-100 V at 4° C., the proteins were transferred to Immobilon membrane (Millipore) for immunoblotting.

HEK293 cells [8] = test: Lactate level measurement in HEK293 cells; format: cell-based; settings: sodium oxamate (20 mM) overnight
HSV = system: HSV; set-up: species or system mice; settings: mouse, in vivo
[9] = 2 hours post PolyI:C transfection
[10] = 4 hours post PolyI:C transfection
[11] = 8 hours post PolyI:C transfection

T1 sequence (Q7Z434 whole entry): as the sequence (Q7Z434 whole entry) above

control peptide: corresponding control construct (SEQ ID NO:43) (YGRKKRRQRRRATGVLYLLVVLVWVAAQGVLTVL)
entry into cells (HeLa cells): found to enter into cells

polyI:C
mitochondria HK2 level (HK2): decreased | Relative Quantity, 2/3-Phosphoglyceric Acid (185.0/97.0) (HEK293 cells [1]; [9]): 0.4994 | Relative Quantity, 3HBA (103.0/59.0) (HEK293 cells [1]; [9]): 0.6808 | Relative Quantity, Aconitate (173.0/85.0) (HEK293 cells [1]; [9]): 0.7655 | Relative Quantity, Alpha-Ketoglutaric Acid (145.0/101.0) (HEK293 cells [1]; [9]): 0.94 | Relative Quantity, D-GA3P (168.9/97.0) (HEK293 cells [1]; [9]): 0.5042 | Relative Quantity, DHAP (168.9/78.8) (HEK293 cells [1]; [9]): 0.6334 | Relative Quantity, F16BP/F26BP/G16BP (339.0/97.0) (HEK293 cells [1]; [9]): 0.5666 | Relative Quantity, Fumaric Acid (115.0/71.0) (HEK293 cells [1]; [9]): 0.7279 | Relative Quantity, G1P/G6P/F6P/F1P (259.0/97.0) (HEK293 cells [1]; [9]): 0.712 | Relative Quantity, Glucose (179.0/89.0) (HEK293 cells [1]; [9]): 1.118 | Relative Quantity, Lactate (89.0/43.0) (HEK293 cells [1]; [9]): 0.536 | Relative Quantity, Malate (133.0/115.0) (HEK293 cells [1]; [9]): 0.6979 | Relative Quantity, Maleic Acid (115.0/71.0 (2)) (HEK293 cells [1]; [9]): 0.6194 | Relative Quantity, Malonic Acid (103.0/41.0) (HEK293 cells [1]; [9]): 0.5644 | Relative Quantity, Oxalacetate (131.0/113.0) (HEK293 cells [1]; [9]): 0.977 | Relative Quantity, PEP (166.9/79.0) (HEK293 cells [1]; [9]): 0.3968 | Relative Quantity, Pyruvate (87.0/43.0) (HEK293 cells [1]; [9]): 0.683 | Relative Quantity, Succinate (117.0/73.0) (HEK293 cells [1]; [9]): 0.7616 | Relative Quantity, 2/3-Phosphoglyceric Acid (185.0/97.0) (HEK293 cells [1]; [10]): 0.7985 | Relative Quantity, 3HBA (103.0/59.0) (HEK293 cells [1]; [10]): 0.7735 | Relative Quantity, Aconitate (173.0/85.0) (HEK293 cells [1]; [10]): 0.6576 | Relative Quantity, Alpha-Ketoglutaric Acid (145.0/101.0) (HEK293 cells [1]; [10]): 0.8959 | Relative Quantity, D-GA3P (168.9/97.0) (HEK293 cells [1]; [10]): 0.6278 | Relative Quantity, DHAP (168.9/78.8) (HEK293 cells [1]; [10]): 0.935 | Relative Quantity, F16BP/F26BP/G16BP (339.0/97.0) (HEK293 cells [1]; [10]): 0.9103 | Relative Quantity, Fumaric Acid (115.0/71.0) (HEK293 cells [1]; [10]): 0.7094 | Relative Quantity, G1P/G6P/F6P/F1P (259.0/97.0) (HEK293 cells [1]; [10]): 0.8706 | Relative Quantity, Glucose (179.0/89.0) (HEK293 cells [1]; [10]): 1.093 | Relative Quantity, Lactate (89.0/43.0) (HEK293 cells [1]; [10]): 0.657 | Relative Quantity, Malate (133.0/115.0) (HEK293 cells [1]; [10]): 0.7843 | Relative Quantity, Maleic Acid (115.0/71.0 (2)) (HEK293 cells [1]; [10]): 0.7566 | Relative Quantity, Malonic Acid (103.0/41.0) (HEK293 cells [1]; [10]): 0.6946 | Relative Quantity, Oxalacetate (131.0/113.0) (HEK293 cells [1]; [10]): 1.006 | Relative Quantity, PEP (166.9/79.0) (HEK293 cells [1]; [10]): 0.7706 | Relative Quantity, Pyruvate (87.0/43.0) (HEK293 cells [1]; [10]): 0.7115 | Relative Quantity, Succinate (117.0/73.0) (HEK293 cells [1]; [10]): 0.8793 | Relative Quantity, 2/3-Phosphoglyceric Acid (185.0/97.0) (HEK293 cells [1]; [11]): 1.118 | Relative Quantity, 3HBA (103.0/59.0) (HEK293 cells [1]; [11]): 1.035 | Relative Quantity, Aconitate (173.0/85.0) (HEK293 cells [1]; [11]): 0.7724 | Relative Quantity, Alpha-Ketoglutaric Acid (145.0/101.0) (HEK293 cells [1]; [11]): 0.965 | Relative Quantity, D-GA3P (168.9/97.0) (HEK293 cells [1]; [11]): 0.998 | Relative Quantity, DHAP (168.9/78.8) (HEK293 cells [1]; [11]): 1.101 | Relative Quantity, F16BP/F26BP/G16BP (339.0/97.0) (HEK293 cells [1]; [11]): 1.127 | Relative Quantity, Fumaric Acid (115.0/71.0) (HEK293 cells [1]; [11]): 1.057 | Relative Quantity, G1P/G6P/F6P/F1P (259.0/97.0) (HEK293 cells [1]; [11]): 1.034 | Relative Quantity, Glucose (179.0/89.0) (HEK293 cells [1]; [11]): 0.9641 | Relative Quantity, Lactate (89.0/43.0) (HEK293 cells [1]; [11]): 1.05 | Relative Quantity, Malate (133.0/115.0) (HEK293 cells [1]; [11]): 0.9353 | Relative Quantity, Maleic Acid (115.0/71.0 (2)) (HEK293 cells [1]; [11]): 0.9352 | Relative Quantity, Malonic Acid (103.0/41.0) (HEK293 cells [1]; [11]): 0.9823 | Relative Quantity, Oxalacetate (131.0/113.0) (HEK293 cells [1]; [11]): 1.032 | Relative Quantity, PEP (166.9/79.0) (HEK293 cells [1]; [11]): 1.062 | Relative Quantity, Pyruvate (87.0/43.0) (HEK293 cells [1]; [11]): 1.023 | Relative Quantity, Succinate (117.0/73.0) (HEK293 cells [1]; [11]): 0.8886

O=C[C@H](O)[C@@H](O)[C@@H](O)[C@H](O)CO [galactose]
IFN-β and IL-6 production upon poly(I:C) or Sev challenge (RLR signaling [2]): markedly enhanced | GFP expression (VSV-GFP): no GFP expression | viral replication, as determined by GFP fluorescence (VSV-GFP): marked reduction in viral replication | anaerobic glycolysis-mediated lactate production (iBMM cells): impaired

N#C/C(=C\c1cn(-c2ccccc2)c2ccccc12)C(=O)O [UK5099]
MAVS signaling and IFN-β induction (MAVS signaling): decreased | lactate level (MAVS signaling): elevated

CC(O)C(=O)O (centres unmarked) [lactate]
interaction between activated RIG-I and MAVS (RIG-I/MAVS): markedly reduced | effect of oxamate on MAVS mitochondria localization (MAVS [3]; lactate add-back with oxamate): compromised this effect | interaction with RLR signaling proteins in biotin pulldown (MAVS [4]; biotin-labeled lactate mixed with whole cell extracts (HEK293)): specifically interacted with MAVS | interaction with MAVS in cells under physiological conditions (MAVS [4]; complexes immunoprecipitated by anti-MAVS antibody from HEK293 cells): interacted with lactate | binding of MAVS to Biotin-lactate (MAVS [4]; pre-incubation with excessive lactate, data not shown): significantly attenuated | IFN-β production (RLR signaling [5]): consistently reduced

O=CC[C@@H](O)[C@H](O)[C@H](O)CO [2-DG, 2-deoxy-glucose]
virus replication (Sendai virus): reduction in virus replication | IFN-β expression (RLR signaling [6]): promoted IFN-β expression | IFN-β and IL-6 production driven by RLR stimuli (RLR signaling [7]): markedly enhanced

NC(=O)C(=O)[O-].[Na+] [sodium oxamate]
interaction between activated RIG-I and MAVS (RIG-I/MAVS): enhanced | lactate production (VSV): reduced | MAVS mitochondria localization (MAVS [3]; oxamate alone): potentiated | IRF3 and TBK1 phosphorylation and MAVS aggregation upon RLR activation (MAVS-TBK1-IRF3): promoted | virus replication (Sendai virus): suppressing virus replication | lactate level (HEK293 cells [8]): reduced | IFN-β expression (RLR signaling [6]): promoted IFN-β expression | IFN production (HSV): no difference | IFN-β production (RLR signaling [7]): enhanced
